# Values of other authors, collected in paper PMC4585333, “Novel Regulator of Acylated Ghrelin, CF801, Reduces Weight Gain, Rebound Feeding after a Fast, and Adiposity in Mice” (Frontiers in Endocrinology, 2015).
# How the values were obtained:
# [1] = effects appear similar to those of CF801; ref [74], [75]; cited from earlier work
# Description: Given the high amino acid similarity between CF801 and desacyl ghrelin, it is possible that CF801 acts like an analog of desacyl ghrelin. […] Alternatively, CF801 may reduce acylated ghrelin simply by reducing GOAT mRNA, and thus acyl ghrelin levels, without altering GOAT activity at least in the way that this is tested in vitro. While the mechanisms underlying these ef ...
# [2] = cited from earlier work
# From the text: One potential target for the control of body weight and appetite is the gut–brain peptide ghrelin. Ghrelin, a 28-amino-acid peptide produced in the X/A-like cells of the gastric oxyntic mucosa lining the stomach, is a key regulator of both short- and long-term energy homeostasis ([1]–[3]). Circulating ghrelin levels rise in anticipation of a meal and subside once the organism is satiated ([4]–[7]).
# GOAT = conditions: microsomal assay; ref [56]; cited from earlier work
# From the text: An approach was undertaken to design a novel GOAT inhibitor, resulting in a compound we named CF801. The first five amino acids of CF801 derive from studies carried out in 2008 by Yang et al., who examined the inhibitory effect of certain pentapeptides (e.g., GSAFL-NH2) on GOAT using a microsomal assay ([56]). […] In synthesizing CF801, we extended and modified the original GSAFL-NH2 ...
substance,measurement,setting,value
desacyl ghrelin,"weight gain, ghrelin secretion and adipose tissue accumulation",[1],"decrease in weight gain, ghrelin secretion, and adipose tissue accumulation"
ghrelin,feeding after injection,"[2]; injections of ghrelin, ref [35]–[37]",vigorous feeding bouts
same,respiratory exchange ratio (RER),"[2]; mice receiving daily injections of ghrelin, ref [3]",increases in RER
GSAFL-NH2,inhibitory activity on GOAT,GOAT,showed inhibitory activity on GOAT
